Laboratory results: BigSolDB 2.1

Cc1c(N(C)CS(=O)(=O)[O-])c(=O)n(-c2ccccc2)n1C.O.[Na+]
solubility (mole fraction)
Details | in acetone | in ethanol | in ethyl acetate | in isopropanol | in methanol | in methyl acetate | in n-butanol | in n-propanol | in sec-butanol | in water
293.15 K | 0.0001 | 0.0032 | 0.0001 | 0.0003 | 0.0278 | 0.0001 | 0.0003 | 0.0011 | 0.0002 | 0.0538
298.15 K | 0.0001 | 0.0037 | 0.0001 | 0.0004 | 0.0318 | 0.0001 | 0.0004 | 0.0013 | 0.0003 | 0.0576
303.05 K | 0.0002 | 0.0042 | 0.0001 | 0.0005 | 0.0363 | 0.0001 | 0.0005 | 0.0016 | 0.0004 | 0.0615
308.05 K | 0.0002 | 0.0049 | 0.0002 | 0.0006 | 0.0408 | 0.0001 | 0.0007 | 0.0019 | 0.0006 | 0.0656
313.05 K | 0.0003 | 0.0056 | 0.0002 | 0.0008 | 0.0475 | 0.0002 | 0.0009 | 0.0023 | 0.0007 | 0.0697
318.05 K | 0.0003 | 0.0064 | 0.0003 | 0.0009 | 0.0521 | 0.0002 | 0.0012 | 0.0028 | 0.001 | 0.0738
323.05 K | 0.0004 | 0.0073 | 0.0003 | 0.0011 | 0.058 | 0.0003 | 0.0015 | 0.0034 | 0.0013 | 0.0782
327.95 K | 0.0005 | 0.0082 | 0.0004 | 0.0014 | 0.0634 | 0.0004 | 0.0019 | 0.004 | 0.0016 | 0.0825
332.85 K | 0.0006 | 0.0092 | 0.0005 | 0.0016 | 0.0688 | 0.0005 | 0.0024 | 0.0047 | 0.0021 | 0.087
